# Paper PMC7252514 (Science (New York, N.Y.), 2019)
# What was measured:
# [1] = molecular target: α7^L131G,Q139L,Y217F-GlyR (Homo sapiens, UniProt P23415+P36544, L131G/Q139L/Y217F); test: Electrophysiological recordings from HEK-293 cells expressing PSAM4-GlyR; assay type: cell-based
# [2] = molecular target: α7 nAChR (Homo sapiens, UniProt P36544); test: Agonist activity at α7 nAChR; assay type: cell-based
# [3] = system: α7^L131G-GlyR; test: Membrane potential; assay type: cell-based; conditions: α7L131G-GlyR versus parent channel
# [4] = Food intake; assay type: in vivo, mice; conditions: elevated doses
# [5] = system: cultured hippocampal neurons expressing PSAM^4-GlyR; test: Continuous silencing of cultured hippocampal neurons expressing PSAM4-GlyR; assay type: cell-based; conditions: varenicline 15 nM for 3 – 18 days
# [6] = system: PSAM^4-GlyR-expressing layer 2/3 cortical neurons; assay type: cell-based, mice; conditions: varenicline 10 – 16 nM
# [7] = system: PSAM^4-GlyR in SNr GABAergic neurons; test: Unilateral SNr silencing rotation assay in PSAM4-GlyR mice; assay type: in vivo
# [8] = system: PSAM^4-GlyR in GPi neurons; test: In vivo electrophysiology of GPi neurons transduced with PSAM4-GlyR; design: species or system rhesus monkey; conditions: subcutaneous 0.1 mg/kg, versus varenicline prior to AAV transduction
# [9] = system: cultured hippocampal neuron expressing PSAM^4-5HT3; test: Sustained depolarization of cultured hippocampal neurons by PSAM4-5HT3; conditions: continuous varenicline 15 nM exposure
# [10] = molecular target: T1, PSAM^4-5HT3 (Homo sapiens, UniProt P36544, L131G/Q139L/Y217F, form not given, species not given); test: Electrophysiology of PSAM4-5HT3 currents; assay type: cell-based; conditions: off-rate
# [11] = system: PSAM^4-5HT3 HC-expressing layer 2/3 cortical neurons; test: Depolarization of layer 2/3 cortical neurons expressing PSAM4-5HT3 HC; conditions: varenicline 15 nM
# [12] = system: PgP; conditions: cited from earlier work
# [13] = cited from earlier work
# [14] = molecular target: T1, PSAM^4-5HT3; test: Membrane potential; assay type: cell-based; conditions: endogenous ligands
# [15] = molecular target: α7^L131G,Q139L,Y217F-GlyR (PSAM^4-GlyR) (Homo sapiens, UniProt P36544, L131G/Q139L/Y217F); test: Membrane potential; assay type: cell-based
# Sequence of α7^L131G,Q139L,Y217F-GlyR (PSAM^4-GlyR) (P36544 23-229 L131G/Q139L/Y217F): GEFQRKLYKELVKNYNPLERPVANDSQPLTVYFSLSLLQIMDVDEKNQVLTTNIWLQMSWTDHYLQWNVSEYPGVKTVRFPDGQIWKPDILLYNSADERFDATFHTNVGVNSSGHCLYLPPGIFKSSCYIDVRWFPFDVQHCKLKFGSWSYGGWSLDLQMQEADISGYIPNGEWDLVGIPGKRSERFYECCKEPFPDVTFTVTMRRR
# Sequence of α7^L131G,Q139L,Y217F-GlyR (PSAM^4-GlyR) (P23415 248-457 partner): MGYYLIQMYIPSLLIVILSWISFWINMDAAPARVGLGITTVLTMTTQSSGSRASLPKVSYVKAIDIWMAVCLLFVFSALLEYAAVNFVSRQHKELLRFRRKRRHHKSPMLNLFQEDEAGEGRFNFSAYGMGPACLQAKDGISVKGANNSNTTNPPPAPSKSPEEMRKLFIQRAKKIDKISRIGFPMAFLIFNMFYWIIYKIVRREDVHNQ
# T1 sequence (P23979 242-489, form open): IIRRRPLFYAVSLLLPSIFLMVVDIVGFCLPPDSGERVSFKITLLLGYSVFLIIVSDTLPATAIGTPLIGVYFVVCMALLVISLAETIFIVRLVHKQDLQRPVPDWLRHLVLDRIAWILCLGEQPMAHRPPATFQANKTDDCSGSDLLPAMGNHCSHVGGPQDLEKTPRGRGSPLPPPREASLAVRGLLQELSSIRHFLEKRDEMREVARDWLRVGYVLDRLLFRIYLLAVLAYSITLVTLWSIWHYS
# T1 sequence (P36544 23-224 L131G/Q139L/Y217F, form open): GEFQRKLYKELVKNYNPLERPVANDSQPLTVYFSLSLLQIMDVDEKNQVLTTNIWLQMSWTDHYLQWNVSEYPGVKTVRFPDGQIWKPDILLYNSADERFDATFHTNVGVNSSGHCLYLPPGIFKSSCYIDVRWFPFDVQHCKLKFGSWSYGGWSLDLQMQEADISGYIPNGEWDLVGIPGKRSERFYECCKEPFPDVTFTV
# Sequence of α7 nAChR (P36544 23-502): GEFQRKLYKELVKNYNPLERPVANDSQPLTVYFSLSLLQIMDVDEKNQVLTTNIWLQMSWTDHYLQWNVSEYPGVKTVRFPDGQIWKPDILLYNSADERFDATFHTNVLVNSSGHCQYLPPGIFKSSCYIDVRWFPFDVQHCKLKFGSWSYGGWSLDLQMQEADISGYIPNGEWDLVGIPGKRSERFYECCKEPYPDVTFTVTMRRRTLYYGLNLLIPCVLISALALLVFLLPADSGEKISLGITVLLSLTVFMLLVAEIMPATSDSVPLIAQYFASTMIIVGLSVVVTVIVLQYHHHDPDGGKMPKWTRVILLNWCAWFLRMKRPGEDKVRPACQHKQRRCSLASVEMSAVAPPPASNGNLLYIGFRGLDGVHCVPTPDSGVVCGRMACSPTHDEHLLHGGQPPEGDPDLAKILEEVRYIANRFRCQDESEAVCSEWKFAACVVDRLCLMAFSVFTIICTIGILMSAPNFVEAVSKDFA
structure (smiles),measurement,setting,value
NCC(=O)O [glycine],response to glycine,[1],did not respond
CN1C2CCCC1CC(NC(=O)c1nn(C)c3ccccc13)C2 (centres unmarked) [granisetron],agonist activity at α7 nAChR,[2],no agonist activity
CN1[C@@H]2CC[C@H]1C[C@@H](OC(=O)c1c[nH]c3ccccc13)C2 [tropisetron],potency enhancement,[3],3 fold
c1cnc2cc3c(cc2n1)[C@@H]1CNC[C@H]3C1 [varenicline],food intake,[4],reduced
same,rheobase under constant exposure,[5],maintained elevated rheobase
same,increase of current amplitude required to fire an action potential (rheobase),[6],6 fold
same,suppression of firing,[6],strongly suppressed firing
same,reduction of input resistance,[6]; on average,3 fold
same,time for rotation activity to return nearly to baseline,[7]; intraperitoneal,~4 h
same,time to evident behavioral effects of silencing,[7]; intraperitoneal,≤ 20 min
same,lowest effective dose (LED),"[7]; intraperitoneal, onset of rotation, with amphetamine 3 mg/kg",0.1 mg/kg
same,circling after oral delivery,[7]; oral delivery 5 μg/mL,elicited circling
same,GPi neuron firing rate and burst firing rate,[8],significantly inhibited
same,duration of sustained depolarization,[9],14 to 22 days
same,t-off1/2,[10],3.2 ± 1.3 min
same,potency enhancement,[3],17 fold
same,depolarization,[11],+17.2 ± 2.4 mV
same,PgP substrate,[12],not a PgP substrate
same,brain penetrance,[13],excellent brain penetrance
"CC(=O)OCC[N+](C)(C)C [ACh, acetylcholine]",potency at PSAM4-5HT3,[14],low potencies
"C[N+]1([O-])CCN(C2=Nc3cc(Cl)ccc3Nc3ccccc32)CC1 [CNO, clozapine-N-oxide]",PgP substrate,[12],substrate for the P-glycoprotein efflux pump
C[N+](C)(C)CCO [choline],potency at PSAM4-5HT3,[14],low potencies
same,EC50,[15],128 ± 32 µM
